Where two headings read alike, the source gives them in different places.

One data set deals with K562 CML cells. The settings on record: cited from earlier work.
A further data set deals with ERBB2 (Homo sapiens, UniProt P04626). The data set is described as follows: single-point (1 uM) inhibition assay (ProQinase Kinase Profiler). Format: biochemical. The settings on record: read-out: % residual activity class (FIG. 3).
A further data set concerns the target FGF-R2 (Homo sapiens, UniProt P21802). The data set is described as above. Format: biochemical. The settings on record: read-out: % residual activity class (FIG. 3).
A further data set concerns the target p38-beta (Homo sapiens, UniProt Q15759). The data set is described as follows: biochemical. The settings on record: read-out: % residual activity class (FIG. 3).
The target of the next data set is ACV-R2B (Homo sapiens, UniProt Q13705). The data set is described as follows: biochemical. The settings on record: read-out: % residual activity class (FIG. 3).
Another data set has as its target EPHA6 (Homo sapiens, UniProt Q9UF33). The data set is described as follows: single-point (1 uM) inhibition assay (ProQinase Kinase Profiler). Format: biochemical. The settings on record: 1 uM compound, read-out: % residual activity class (FIG. 3).
A further data set deals with T1, BMPR1A (Homo sapiens, UniProt P36894).
T1 construct: purchased ProQinase, Freiburg, Germany (Kinase Profiler panel)
T1 sequence (P36894 24-532): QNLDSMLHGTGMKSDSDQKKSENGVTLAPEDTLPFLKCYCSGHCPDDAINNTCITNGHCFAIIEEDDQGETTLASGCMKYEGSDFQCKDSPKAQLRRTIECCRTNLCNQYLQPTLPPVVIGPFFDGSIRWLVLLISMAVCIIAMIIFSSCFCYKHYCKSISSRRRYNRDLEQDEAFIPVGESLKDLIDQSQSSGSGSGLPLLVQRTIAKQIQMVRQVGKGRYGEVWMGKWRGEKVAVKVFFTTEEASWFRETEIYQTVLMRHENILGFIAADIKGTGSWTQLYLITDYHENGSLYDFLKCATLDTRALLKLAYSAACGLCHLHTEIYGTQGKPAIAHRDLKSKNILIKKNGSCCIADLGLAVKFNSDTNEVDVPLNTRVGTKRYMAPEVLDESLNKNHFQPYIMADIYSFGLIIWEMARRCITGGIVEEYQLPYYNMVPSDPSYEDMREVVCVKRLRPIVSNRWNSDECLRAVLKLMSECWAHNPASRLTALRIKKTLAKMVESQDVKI
The description is as above. Format: biochemical.

The next data set relates to KU812 tumours. The settings on record: large KU812 tumours (up to >1 g); 50 mg/kg/day for 5 days; cited from earlier work.
For a further data set, the target named is hERG potassium channel (Homo sapiens, UniProt Q12809). The settings on record: page 31, NDA 21-986, cited from earlier work.
The next data set has as its target T2, JAK1 aa583-1154 wt (Homo sapiens, UniProt P23458).
T2 construct: JAK1 aa583-1154 wt; purchased ProQinase, Freiburg, Germany (Kinase Profiler panel)
The data set is described as follows: single-point (1 uM) inhibition assay (ProQinase Kinase Profiler). The format is biochemical.

For a further data set, the target named is T3, EPHB3 (Homo sapiens, UniProt P54753).
T3 construct: purchased ProQinase
T3 sequence (P54753 34-998): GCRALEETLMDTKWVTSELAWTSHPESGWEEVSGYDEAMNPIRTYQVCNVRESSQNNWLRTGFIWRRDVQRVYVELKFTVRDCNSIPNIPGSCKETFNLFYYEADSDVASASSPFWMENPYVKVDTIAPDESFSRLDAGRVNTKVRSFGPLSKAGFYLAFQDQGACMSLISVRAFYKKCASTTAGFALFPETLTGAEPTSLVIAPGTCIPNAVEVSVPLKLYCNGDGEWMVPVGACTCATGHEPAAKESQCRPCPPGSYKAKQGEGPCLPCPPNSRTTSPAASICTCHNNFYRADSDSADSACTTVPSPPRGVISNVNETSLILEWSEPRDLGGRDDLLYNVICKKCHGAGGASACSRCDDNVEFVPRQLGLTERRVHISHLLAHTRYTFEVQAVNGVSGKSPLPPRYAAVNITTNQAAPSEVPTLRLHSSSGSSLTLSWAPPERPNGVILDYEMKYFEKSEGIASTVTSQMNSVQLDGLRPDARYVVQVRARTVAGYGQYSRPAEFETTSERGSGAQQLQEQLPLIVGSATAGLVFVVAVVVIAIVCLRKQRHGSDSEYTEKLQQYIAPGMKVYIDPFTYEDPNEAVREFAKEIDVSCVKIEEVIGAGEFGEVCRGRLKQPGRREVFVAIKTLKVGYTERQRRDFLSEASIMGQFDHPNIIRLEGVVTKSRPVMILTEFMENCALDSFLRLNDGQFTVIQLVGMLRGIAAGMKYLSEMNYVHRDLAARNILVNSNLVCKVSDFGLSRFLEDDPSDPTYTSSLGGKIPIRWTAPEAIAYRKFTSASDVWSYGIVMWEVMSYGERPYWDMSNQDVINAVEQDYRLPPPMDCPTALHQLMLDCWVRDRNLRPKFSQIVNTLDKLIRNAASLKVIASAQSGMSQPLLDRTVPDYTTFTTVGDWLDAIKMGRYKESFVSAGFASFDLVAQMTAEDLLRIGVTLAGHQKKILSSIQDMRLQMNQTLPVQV
The data set is described as above. Format: biochemical.

The next data set addresses T4, CSF1-R (Homo sapiens, UniProt P07333).
T4 construct: purchased ProQinase
Described as above. Format: biochemical. The settings on record: 1 uM compound, read-out: % residual activity class (FIG. 3).

The next data set has as its target T5, EGF-R (Homo sapiens, UniProt P00533).
T5 construct: purchased ProQinase
The data set is described as above. The format is biochemical. The settings on record: 1 uM compound, read-out: % residual activity class (FIG. 3).

The target in a further data set is T6, ABL1 (Homo sapiens, UniProt P00519).
T6 construct: purchased ProQinase
The data set is described as follows: biochemical. The settings on record: 1 uM compound, read-out: % residual activity class (FIG. 3).

A short description of data set [1]: human liver microsomal stability. The format is in vitro ADME.
The target in another data set is T7, EPHB4 (Homo sapiens, UniProt P54760).
T7 construct: purchased ProQinase
T7 sequence (P54760 16-987): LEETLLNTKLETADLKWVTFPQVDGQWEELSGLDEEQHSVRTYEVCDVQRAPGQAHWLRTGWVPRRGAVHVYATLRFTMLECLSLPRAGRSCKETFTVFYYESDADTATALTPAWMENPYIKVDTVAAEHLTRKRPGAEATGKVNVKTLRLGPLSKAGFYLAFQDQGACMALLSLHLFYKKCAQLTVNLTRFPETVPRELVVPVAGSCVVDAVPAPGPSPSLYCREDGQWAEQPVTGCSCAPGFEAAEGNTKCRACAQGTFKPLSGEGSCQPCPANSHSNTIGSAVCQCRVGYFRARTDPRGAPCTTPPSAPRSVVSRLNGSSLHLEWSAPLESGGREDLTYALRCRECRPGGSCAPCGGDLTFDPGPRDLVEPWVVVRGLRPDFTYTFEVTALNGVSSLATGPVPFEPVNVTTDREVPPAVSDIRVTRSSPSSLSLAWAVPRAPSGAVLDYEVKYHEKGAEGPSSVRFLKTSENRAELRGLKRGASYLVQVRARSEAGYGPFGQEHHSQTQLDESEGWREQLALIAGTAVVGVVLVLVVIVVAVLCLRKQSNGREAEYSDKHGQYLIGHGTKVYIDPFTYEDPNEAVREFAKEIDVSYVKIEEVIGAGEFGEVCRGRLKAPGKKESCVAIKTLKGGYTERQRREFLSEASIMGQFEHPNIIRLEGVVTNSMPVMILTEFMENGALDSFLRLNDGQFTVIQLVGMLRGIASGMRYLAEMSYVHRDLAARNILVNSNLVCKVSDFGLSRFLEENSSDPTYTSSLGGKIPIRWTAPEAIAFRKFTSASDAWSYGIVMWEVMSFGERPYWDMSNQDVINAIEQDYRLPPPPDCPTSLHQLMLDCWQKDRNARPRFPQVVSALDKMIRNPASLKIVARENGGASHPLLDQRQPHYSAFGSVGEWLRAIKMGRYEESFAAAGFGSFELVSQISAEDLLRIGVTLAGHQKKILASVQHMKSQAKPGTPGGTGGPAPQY
The data set is described as follows: biochemical.

For a further data set, the target named is T8, TGFB-R1 (Homo sapiens, UniProt P36897).
T8 construct: purchased ProQinase
The data set is described as follows: single-point (1 uM) inhibition assay (ProQinase Kinase Profiler). Format: biochemical. The settings on record: 1 uM compound, read-out: % residual activity class (FIG. 3).

The next data set concerns the target T9, YES (Homo sapiens, UniProt P07947).
T9 construct: purchased ProQinase
Described as above. The format is biochemical. The settings on record: 1 uM compound, read-out: % residual activity class (FIG. 3).

The target of a further data set is T10, EPHA8 (Homo sapiens, UniProt P29322).
T10 construct: purchased ProQinase
The data set is described as above. Format: biochemical.

In another data set the target is T11, LCK (Homo sapiens, UniProt P06239).
T11 construct: purchased ProQinase
The data set is described as above. The format is biochemical. The settings on record: 1 uM compound, read-out: % residual activity class (FIG. 3).

A further data set concerns the target T12, BMX (Homo sapiens, UniProt P51813).
T12 construct: purchased ProQinase
The description is as above. Format: biochemical. The settings on record: 1 uM compound, read-out: % residual activity class (FIG. 3).

A further data set deals with NIK (Homo sapiens, UniProt Q99558). The data set is described as follows: biochemical. The settings on record: read-out: Residual activity (%) at 1 uM.
The next data set has as its target T13, EPHA2 (Homo sapiens, UniProt P29317).
T13 construct: purchased ProQinase
The data set is described as follows: single-point (1 uM) inhibition assay (ProQinase Kinase Profiler). The format is biochemical.

The target of a further data set is T14, SRC (Homo sapiens, UniProt P12931).
T14 construct: purchased ProQinase
The data set is described as follows: biochemical. The settings on record: 1 uM compound, read-out: % residual activity class (FIG. 3).

A further data set has as its target WNK2 (Homo sapiens, UniProt Q9Y3S1). The data set is described as follows: biochemical. The settings on record: read-out: Residual activity (%) at 1 uM.
A further data set concerns RAF1. The data set is described as follows: single-point (1 uM) inhibition assay (ProQinase Kinase Profiler). The settings on record: 1 uM compound. Format: biochemical.
A further data set addresses T15, EPHA5 (Homo sapiens, UniProt P54756).
T15 construct: purchased ProQinase
The description is as above. The format is biochemical.

Another data set concerns the target T16, ACV-R2A (Homo sapiens, UniProt P27037).
T16 construct: purchased ProQinase
The data set is described as above. The settings on record: 1 uM compound, read-out: % residual activity class (FIG. 3). The format is biochemical.

The target of a further data set is T17, BRK (Homo sapiens, UniProt Q13882).
T17 construct: purchased ProQinase
The data set is described as above. Format: biochemical. The settings on record: 1 uM compound, read-out: % residual activity class (FIG. 3).

A further data set has as its target T18, ERBB4 (Homo sapiens, UniProt Q15303).
T18 construct: purchased ProQinase
The description is as above. Format: biochemical. The settings on record: 1 uM compound, read-out: % residual activity class (FIG. 3).

A further data set deals with T19, B-RAF (Homo sapiens, UniProt P15056).
T19 construct: purchased ProQinase
The data set is described as above. Format: biochemical.

[2] abbreviates: read-out: Residual activity (%) at 1 uM.
Where [3] appears, read: read-out: % residual activity class (FIG. 3).

T2 sequence (P23458 583-1154): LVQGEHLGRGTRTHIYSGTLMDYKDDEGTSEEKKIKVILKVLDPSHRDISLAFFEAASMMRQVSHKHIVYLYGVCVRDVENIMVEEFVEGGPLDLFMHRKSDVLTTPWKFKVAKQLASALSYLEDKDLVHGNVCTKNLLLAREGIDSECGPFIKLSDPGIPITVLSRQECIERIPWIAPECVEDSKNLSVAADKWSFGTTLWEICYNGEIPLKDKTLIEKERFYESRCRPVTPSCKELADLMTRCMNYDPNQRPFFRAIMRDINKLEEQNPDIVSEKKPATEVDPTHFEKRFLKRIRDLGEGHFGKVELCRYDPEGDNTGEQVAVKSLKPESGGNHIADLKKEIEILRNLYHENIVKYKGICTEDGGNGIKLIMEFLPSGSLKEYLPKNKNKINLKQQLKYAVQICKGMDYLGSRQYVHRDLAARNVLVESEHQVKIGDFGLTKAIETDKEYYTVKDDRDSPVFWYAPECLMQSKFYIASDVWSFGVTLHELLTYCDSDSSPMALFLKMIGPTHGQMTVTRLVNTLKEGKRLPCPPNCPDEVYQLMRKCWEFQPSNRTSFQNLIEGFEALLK
T13 sequence (P29317 24-976): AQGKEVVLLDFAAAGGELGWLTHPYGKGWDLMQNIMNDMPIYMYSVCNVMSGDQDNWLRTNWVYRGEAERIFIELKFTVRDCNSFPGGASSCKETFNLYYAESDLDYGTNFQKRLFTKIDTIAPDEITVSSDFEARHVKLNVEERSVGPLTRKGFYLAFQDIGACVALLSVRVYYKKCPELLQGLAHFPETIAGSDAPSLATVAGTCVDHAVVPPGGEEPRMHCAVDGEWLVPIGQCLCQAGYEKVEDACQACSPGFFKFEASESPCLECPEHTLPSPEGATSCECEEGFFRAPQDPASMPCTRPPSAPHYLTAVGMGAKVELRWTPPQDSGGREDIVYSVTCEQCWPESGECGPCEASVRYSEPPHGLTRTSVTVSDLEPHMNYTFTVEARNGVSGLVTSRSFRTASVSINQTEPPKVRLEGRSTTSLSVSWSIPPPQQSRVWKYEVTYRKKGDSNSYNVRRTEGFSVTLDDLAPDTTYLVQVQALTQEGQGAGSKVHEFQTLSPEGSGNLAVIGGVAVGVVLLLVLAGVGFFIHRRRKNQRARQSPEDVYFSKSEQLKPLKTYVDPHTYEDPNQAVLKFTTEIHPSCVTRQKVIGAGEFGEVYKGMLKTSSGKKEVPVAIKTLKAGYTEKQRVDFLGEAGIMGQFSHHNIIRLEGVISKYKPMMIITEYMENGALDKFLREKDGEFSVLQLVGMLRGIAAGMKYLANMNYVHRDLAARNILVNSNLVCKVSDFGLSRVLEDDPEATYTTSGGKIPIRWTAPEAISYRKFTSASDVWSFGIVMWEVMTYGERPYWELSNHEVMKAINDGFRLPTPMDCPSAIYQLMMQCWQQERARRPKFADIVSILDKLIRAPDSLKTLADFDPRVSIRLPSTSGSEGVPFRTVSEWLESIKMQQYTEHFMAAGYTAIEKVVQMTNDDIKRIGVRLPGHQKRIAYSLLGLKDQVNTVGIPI
T15 sequence (P54756 25-1037): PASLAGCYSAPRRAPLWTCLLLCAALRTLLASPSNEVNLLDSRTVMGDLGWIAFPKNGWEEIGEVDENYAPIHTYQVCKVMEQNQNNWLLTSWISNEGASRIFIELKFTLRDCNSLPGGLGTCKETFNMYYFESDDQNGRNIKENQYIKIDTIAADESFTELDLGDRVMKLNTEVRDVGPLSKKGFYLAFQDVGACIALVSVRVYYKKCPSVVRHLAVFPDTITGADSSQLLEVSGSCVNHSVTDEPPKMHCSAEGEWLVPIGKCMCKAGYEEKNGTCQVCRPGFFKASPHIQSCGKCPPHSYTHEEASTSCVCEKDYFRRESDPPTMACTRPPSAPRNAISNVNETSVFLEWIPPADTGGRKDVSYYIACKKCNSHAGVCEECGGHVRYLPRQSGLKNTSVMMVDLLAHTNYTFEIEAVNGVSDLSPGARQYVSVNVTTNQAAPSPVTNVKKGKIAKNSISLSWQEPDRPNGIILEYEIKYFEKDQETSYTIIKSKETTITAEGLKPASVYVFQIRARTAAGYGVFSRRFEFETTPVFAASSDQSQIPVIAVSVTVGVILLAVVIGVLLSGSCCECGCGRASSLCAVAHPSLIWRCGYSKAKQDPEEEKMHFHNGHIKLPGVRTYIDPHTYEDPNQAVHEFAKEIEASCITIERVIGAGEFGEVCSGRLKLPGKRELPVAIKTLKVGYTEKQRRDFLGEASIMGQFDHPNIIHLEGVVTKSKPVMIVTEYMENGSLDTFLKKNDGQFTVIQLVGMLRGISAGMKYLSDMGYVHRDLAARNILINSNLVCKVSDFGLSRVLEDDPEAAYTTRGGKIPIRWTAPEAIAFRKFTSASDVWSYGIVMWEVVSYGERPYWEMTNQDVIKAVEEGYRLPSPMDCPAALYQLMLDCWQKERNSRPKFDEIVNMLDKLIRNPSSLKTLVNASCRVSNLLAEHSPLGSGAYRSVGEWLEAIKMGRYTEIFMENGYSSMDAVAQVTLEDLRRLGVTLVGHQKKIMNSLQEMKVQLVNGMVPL

With `Cc1nc(Nc2ncc(C(=O)Nc3c(C)cccc3Cl)s2)cc(N2CCN(CCO)CC2)n1` [Compound A8, N-(2-chloro-6-methylphenyl)-2-((6-(4-(2-hydroxyethyl)piperazin-1-yl)-2-methylpyrimidin-4-yl)amino)thiazole-5-carboxamide, reference compound], the survival entry in the data set with K562 CML cells (10 mg/kg/day) is recorded as “increased survival”. The “survival / intracranial tumour growth” value with K562 CML cells (similar study, dasatinib 10 and 30 mg/kg/day, imatinib 200 mg/kg/day) is “increased survival”. Further, the remaining activity at 1 µM at ERBB2 is 25 to 50%; at FGF-R2 it was 25 to 50%; on p38-beta, below 25%; on ACV-R2B, below 25%; on EPHA6, 25 to 50%; on BMPR1A (BMPR1A, 1 uM compound, read-out: % residual activity class (FIG. 3)), 25 to 50%. Further, the remaining activity at 1 µM on BMPR1A (setting [2]) is 42%; at JAK1 aa583-1154 wt (setting [3]) it was 25 to 50%; on JAK1 aa583-1154 wt (setting [2]), 41%. In the data set on KU812 tumours, the tumour response result is “curative”. For the same compound, the “inhibition of hERG currents” value was “about 6%” at hERG potassium channel (3 uM) and around 36% at hERG potassium channel (10 uM).

In the case of `Cc1nc(Nc2ncc(C(=O)Nc3c(Cl)ccnc3C)s2)cc(N2CCN(CCO)CC2)n1` [Compound B3, N-(4-chloro-2-methylpyridin-3-yl)-2-((6-(4-(2-hydroxyethyl)piperazin-1-yl)-2-methylpyrimidin-4-yl)amino)thiazole-5-carboxamide], the remaining activity at 1 µM is below 25% at EPHB3 (setting [3]); 3% on EPHB3 (setting [2]); below 25% on CSF1-R; 25 to 50% on EGF-R; below 25% at ABL1; below 25% at EPHB4 (EPHB4, 1 uM compound, read-out: % residual activity class (FIG. 3)). The remaining activity at 1 µM on EPHB4 (setting [2]) was 1%; at TGFB-R1, 25 to 50%; at YES, below 25%; at EPHA8 (setting [3]), below 25%; on EPHA8 (setting [2]), 3%; at LCK it was below 25%. The remaining activity at 1 µM is below 25% on BMX; 100% at NIK; below 25% on EPHA2 (setting [3]); 0% at EPHA2 (setting [2]); below 25% at SRC; 100% on WNK2. The remaining activity at 1 µM was below 25% at EPHA5 (setting [3]); 1% at EPHA5 (setting [2]); 25 to 50% at ACV-R2A; below 25% at BRK; below 25% at ERBB4; 25 to 50% at B-RAF (setting [3]). On B-RAF (setting [2]), the remaining activity at 1 µM was around 50%. For the same compound, in data set [1], the Half-life is recorded as 58 min. The “% residual activity class (FIG. 3)” value in the data set with RAF1 is “*** (25% to <50% residual activity)”.
